Data reported in patent US4010149A, “Analogs of LH-RH and process for preparing the same” (Sankyo Company Limited, priority 1974, dated 1977).

Tested on: ovulation
Test: Ovulation inducing effect in proestrus rats (subcutaneous)
Type: in vivo, F. Wistar-Imamichi rats
Details: subcutaneous injection at 4:00 p.m. on proestrus day; pentobarbital 30 mg/kg i.p. at 1:00 p.m.; five rats per dosage
Procedure: Examination of ovulation inducing effect
F. Wistar-Imamichi rats (body weight: around 250 g) were bred at room temperature (23° ±1° C) under an artificial light (on at 5:00 a.m. and off at 7:00 p.m.). Among these rats, the rats which had more than three times of four days sexual cycle were subjected to the test.
At 1:00 p.m. on proestrus days, pentobarbital sodium salt was intraperitoneally administered into each of rats (in the amount of 30 mg/kg). Then, at 4:00 p.m. of the same day, a test sample dissolved in 0.1 ml of isotonic sodium chloride solution was subcutaneously injected. Between noon and 1:00 p.m. of the next day, the rats were sacrified and the oviduct was immediately taken out. The oviduct was then placed between a couple of slide glasses and examined for ova through a microscope. The test was conducted by employing five rats for a certain dosage of test samples.

Row | Compound | ED50 (ovulation inducing effect) [μg/body]
1 | N-Acetyl-N-methylglycyl-L-histidyl-L-tryptophyl-L-seryl-L-tyrosyl-D-alanyl-L-leucyl-L-arginyl-L-prolineethylamide [Compound A] | 0.018
2 | CCCC[C@@H](NC(=O)[C@H](Cc1ccc(O)cc1)NC(=O)[C@H](CO)NC(=O)[C@H](Cc1c[nH]c2ccccc12)NC(=O)[C@H](Cc1c[nH]cn1)NC(=O)CN(C)C(C)=O)C(=O)N[C@@H](CC(C)C)C(=O)N[C@@H](CCCNC(=N)N)C(=O)N1CCC[C@H]1C(=O)NCCF [Compound B, N-Acetyl-N-methylglycyl-L-histidyl-L-tryptophyl-L-seryl-L-tyrosyl-D-norleucyl-L-leucyl-L-arginyl-L-proline-2-fluoroethylamide] | 0.0125
3 | CC(C)C[C@H](NC(=O)CNC(=O)[C@H](Cc1ccc(O)cc1)NC(=O)[C@H](CO)NC(=O)[C@H](Cc1c[nH]c2ccccc12)NC(=O)[C@H](Cc1c[nH]cn1)NC(=O)[C@@H]1CCC(=O)N1)C(=O)N[C@@H](CCCNC(=N)N)C(=O)N1CCC[C@H]1C(=O)NCC(N)=O [Natural-type LH-RH (synthesized), L-pyroglutamyl-L-histidyl-L-tryptophyl-L-seryl-L-tyrosylglycyl-L-leucyl-L- arginyl-L-prolylglycine amide, reference compound] | 0.134
